The record followed here is ChEMBL document CHEMBL1150598, “Decipinin A and decipienolides A and B: new bioactive metabolites from the coprophilous fungus Podospora decipiens” (2002).

Active and inactive are the calls of the source. The calls are words filed in the database; no cut-off is given here.

One test has as its system Ascobolus. In words: Antimicrobial activity against Ascobolus furfuraceus NRRL 6460 after 4 days by standard disk assay. Type of test: functional, organism-based.
The subject of another test is Bacillus subtilis. In words: Antimicrobial activity against Bacillus subtilis ATCC 6051 at 200 ug/disk after 4 days by standard disk assay. The format is functional. The following applies: ATCC 6051, 96 h, read-out: IZ.
The subject of a further test is Candida albicans. In words: Antimicrobial activity against Candida albicans ATCC 90029 after 4 days by standard disk assay. The format is functional, organism-based.
The subject of a further test is Sordaria fimicola. In words: Antimicrobial activity against Sordaria fimicola NRRL 6459 after 4 days by standard disk assay. Type of test: functional, organism-based.
The test system of the next test is Fusarium verticillioides. As to the kind of experiment: Antimicrobial activity against Fusarium verticillioides ATCC 24378 at 250 ug/disk after 4 days by standard disk assay. The format is functional. Conditions: ATCC 24378, 96 h, read-out: IZ.

Regarding `CCC/C=C/C=C/C=C/C(=O)O[C@@H]1C2=CC(=O)C(C)(OC(C)=O)C(=O)C2=CO[C@]12O[C@H](C)CC[C@@H]2OC(=O)CCC(=O)O` (some centres undefined) [DECIPININ A], the outcome with Ascobolus, with Candida albicans and in the test with Sordaria fimicola was inactive. The zone of inhibition at 200 µg/disc with Bacillus subtilis was 9 mm. For the same molecule, the zone of inhibition at 250 µg/disc in the test on Fusarium verticillioides was determined as 22 mm.

Turning to `C=C1C(OC(=O)C(C)(C)C(C)O)CC2CC1C21CO[C@@]2(C[C@H](C)C(=O)O2)C1.C=C1C(OC(=O)C(C)(C)C(C)O)CC2CC1C21CO[C@]2(C[C@H](C)C(=O)O2)C1` (some centres undefined) [DECIPIENOLIDE A AND B], the outcome with Ascobolus, in the test with Candida albicans and in the test on Sordaria fimicola was inactive. Also, the zone of inhibition at 200 µg/disc in the test with Bacillus subtilis came out at 9 mm.
